Source: PubChem BioAssay (NCI)
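Following 48 hours of exposure in 96-well plates, responses at five concentrations were used to interpolate endpoints linearly. TGI: concentration producing complete growth inhibition.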

Columns and labels:
Assay in all cases: growth of human tumour cells (NCI), 48 h
[1] = system: UACC-257 melanoma
[2] = system: SN12C renal
[3] = system: TK-10 renal
[4] = system: LOX IMVI melanoma
[5] = system: DU-145 prostate
[6] = system: KM12 colon
[7] = system: M14 melanoma
[8] = system: SF-295 CNS
[9] = system: SK-MEL-28 melanoma
[10] = system: SF-539 CNS
[11] = system: NCI-H460 lung
[12] = system: A549 NSCLC
[13] = system: NCI/ADR-RES ovarian
[14] = system: RPMI-8226 leukemia
[15] = system: HT29 colon
[16] = system: SK-OV-3 ovarian
[17] = system: EKVX NSCLC
[18] = system: NCI-H226 lung
[19] = system: MCF7 breast
[20] = system: PC-3 prostate
[21] = system: MDA-N
[22] = system: SK-MEL-2 melanoma
[23] = system: OVCAR-5 ovarian
[24] = system: COLO 205 colon
[25] = system: T-47D breast
[26] = system: SW-620 colon
[27] = system: SNB-75 CNS
[28] = system: MDA-MB-231 breast
[29] = system: SNB-19 CNS
[30] = system: IGROV1 ovarian
[31] = system: NCI-H23 lung
[32] = system: HL-60(TB) leukemia
[33] = system: HS 578T breast
[34] = system: MALME-3M melanoma
[35] = system: SF-268 CNS
[36] = system: UO-31 renal
[37] = system: ACHN renal
[38] = system: 786-0 renal
[39] = system: OVCAR-4 ovarian
[40] = system: OVCAR-8 ovarian
[41] = system: SK-MEL-5 melanoma
[42] = system: SR leukemia
[43] = system: HOP-62 NSCLC
[44] = system: BT-549 breast
[45] = system: UACC-62 melanoma
[46] = system: HCT-15 colon
[47] = system: MDA-MB-435
[48] = system: CAKI-1 renal
[49] = system: RXF 393 renal
[50] = system: HCC-2998 colon
[51] = system: K-562 leukemia
[52] = system: OVCAR-3 ovarian
[53] = system: U251 CNS
[54] = system: HCT-116 colon
[55] = system: MOLT-4 leukemia
[56] = system: CCRF-CEM leukemia
[57] = system: A498 renal
[58] = system: HOP-92 NSCLC

SMILES: COP(=O)(OC)C(C)(C)NC(=O)NC(F)(F)F
- TGI [1]: > 100 µM
- TGI [2]: > 100 µM
- TGI [3]: > 100 µM
- TGI [4]: > 100 µM
- TGI [5]: > 100 µM
- TGI [6]: > 100 µM
- TGI [7]: > 100 µM
- TGI [8]: > 100 µM
- TGI [9]: > 100 µM
- TGI [10]: > 100 µM
- TGI [11]: > 100 µM
- TGI [12]: > 100 µM
- TGI [13]: > 100 µM
- TGI [14]: > 100 µM
- TGI [15]: > 100 µM
- TGI [16]: > 100 µM
- TGI [17]: > 100 µM
- TGI [18]: 91.1 µM
- TGI [19]: > 100 µM
- TGI [20]: > 100 µM
- TGI [21]: > 100 µM
- TGI [22]: > 100 µM
- TGI [23]: > 100 µM
- TGI [24]: > 100 µM
- TGI [25]: > 100 µM
- TGI [26]: > 100 µM
- TGI [27]: > 100 µM
- TGI [28]: > 100 µM
- TGI [29]: > 100 µM
- TGI [30]: > 100 µM
- TGI [31]: > 100 µM
- TGI [32]: > 100 µM
- TGI [33]: > 100 µM
- TGI [34]: > 100 µM
- TGI [35]: > 100 µM
- TGI [36]: > 100 µM
- TGI [37]: > 100 µM
- TGI [38]: > 100 µM
- TGI [39]: > 100 µM
- TGI [40]: > 100 µM
- TGI [41]: > 100 µM
- TGI [42]: > 100 µM
- TGI [43]: > 100 µM
- TGI [44]: > 100 µM
- TGI [45]: > 100 µM
- TGI [46]: > 100 µM
- TGI [47]: > 100 µM
- TGI [48]: 16.6 µM
- TGI [49]: > 100 µM
- TGI [50]: > 100 µM
- TGI [51]: > 100 µM
- TGI [52]: > 100 µM
- TGI [53]: > 100 µM
- TGI [54]: > 100 µM
- TGI [55]: > 100 µM
- TGI [56]: > 100 µM

SMILES: CC1C2C=CC1C(c1c3ccc(=O)c(O)c-3oc3c(O)c(O)ccc13)C2C(=O)O (stereo unspecified)
- TGI [1]: > 100 µM
- TGI [2]: 51.1 µM
- TGI [3]: > 100 µM
- TGI [4]: 49.1 µM
- TGI [5]: > 100 µM
- TGI [6]: > 100 µM
- TGI [7]: > 100 µM
- TGI [8]: > 100 µM
- TGI [9]: > 100 µM
- TGI [11]: > 100 µM
- TGI [12]: > 100 µM
- TGI [13]: > 100 µM
- TGI [14]: 59.5 µM
- TGI [15]: > 100 µM
- TGI [16]: > 100 µM
- TGI [17]: > 100 µM
- TGI [18]: 86.5 µM
- TGI [19]: 40.8 µM
- TGI [20]: > 100 µM
- TGI [21]: 45.9 µM
- TGI [22]: > 100 µM
- TGI [23]: > 100 µM
- TGI [57]: > 100 µM
- TGI [24]: > 100 µM
- TGI [25]: > 100 µM
- TGI [26]: > 100 µM
- TGI [58]: > 100 µM
- TGI [28]: > 100 µM
- TGI [29]: > 100 µM
- TGI [30]: > 100 µM
- TGI [31]: > 100 µM
- TGI [32]: > 100 µM
- TGI [33]: > 100 µM
- TGI [35]: > 100 µM
- TGI [36]: > 100 µM
- TGI [37]: > 100 µM
- TGI [38]: > 100 µM
- TGI [39]: > 100 µM
- TGI [40]: > 100 µM
- TGI [41]: > 100 µM
- TGI [42]: > 100 µM
- TGI [43]: > 100 µM
- TGI [44]: > 100 µM
- TGI [45]: > 100 µM
- TGI [46]: > 100 µM
- TGI [47]: 36.2 µM
- TGI [48]: > 100 µM
- TGI [49]: > 100 µM
- TGI [50]: > 100 µM
- TGI [51]: 45.8 µM
- TGI [52]: > 100 µM
- TGI [53]: > 100 µM
- TGI [54]: 69.7 µM
- TGI [55]: 56.4 µM
- TGI [56]: 7.38 µM
